Assay results: BindingDB's records for doi:10.1021/jm960092w (Agouron Pharmaceuticals, 1996)

Biological target: T1, Dimer of Gag-Pol polyprotein [489-587] (Human immunodeficiency virus 1, UniProt P12497)
T1 construct: 489-587
Assay: Protease Inhibition Assay
Conditions: pH 5.6; 37 °C
Procedure: Protease activity was measured by continuous chromogenic assay. The chromogenic peptide His-Lys-Ala-Arg-Val-Leu-(p-NO2-Phe)-Glu-Ala-Nleu-Ser was used as a substrate. Reactions were followed by the decrease of absorbance at 300 nm measured by spectrophotometer. Experimental results were analyzed by the nonlinear regression analysis, using a mathematical model for tight binding inhibitors.

CC(C)(C)NC(=O)c1ccccc1C[C@@H](O)[C@H](Cc1ccccc1)NC(=O)[C@H](CC(N)=O)NC(=O)c1ccc2ccccc2n1 [(2S)-N-[(2S,3R)-4-[2-(tert-butylcarbamoyl)phenyl]-3-hydroxy-1-phenylbutan-2-yl]-2-(quinolin-2-ylformamido)butanediamide]
Ki: 2 nM
